In the test the test system is 2×3 cm full-thickness skin wounds on the dorsum. In words: Guinea pig full-thickness skin wound closure (fractional change in wound area, closure rate, peak closure day). The class given is in vivo, Hartley-derived guinea pigs. As to conditions: for Peak Closure Day (% Closure): % closure at the peak closure day; for wound healing activity in medium relative to the same in saline: Agarose in medium vs Agarose in saline (without medium); for Peak Closure Day: day of maximum closure rate, gel every 48 hours; for Closure % (Day) 50%: day on which 50% wound closure was reached, gel about 1 cc/cm^2 every 48 hours; for Peak closure rate (comparison in words): hormones in Agarose in saline (no medium), singly or three together; for Peak closure rate occurred later / closure rate of 50% slower: single hormone in Agarose in media; for Peak closure rate occurred later: compared to Media+3 hormones together; for closure rate of 50% slower: compared to the combination of the three hormones in media; for closure of 50% faster: single hormone in Agarose in saline (no medium), comparator not clearly stated. Here is the method: Under general anaesthesia of […], four 2×3 cm full-thickness skin patches were surgically extirpated from the dorsum of Hartley-derived guinea pigs. After application of the gel (about 1 cc/cm^2) to the wounds, the wounds were dressed with Omiderm, a polyurethane-based synthetic wound dressing (Omikron, Israel) and anchored with gauze and elastic adhesive bandage. Change of the bandages and administration of the gels were performed every 48 hours, under general anaesthesia, at which time in one group, the wounds were washed with ESDC disinfectant (Symbollon Corp., Mass., USA), washed with warm saline, measured and photographed. Computerized morphometric measurements of the photographs were made and the dynamics of the regeneration process were quantified and analyzed. A more detailed description and the results of these experiments is presented herein. Hartley-derived Albino guinea pigs weighing 300-400 grams were used in this study. The animals were housed in individual cages and fed regularly guinea pig chow and water enriched with Vitamin C ad libitum. […] All histological sections were prepared using Hematoxylene and Eosin stain as well as Mason's trichrome method for collagen. Each animal was anesthetized and four bilaterally symmetrical full-thickness skin segments measuring 2×3 cm were excised from the dorsum of each animal, two from the scapular region and two from the lumbar region. After washing the wounds with warm saline, the wounds were dressed with the gel at a concentration of about 1 cc/cm^2, covered with a polyurethane based synthetic membrane Omiderm (Omikron, Israel) and anchored with gauze, elastic adhesive and a […]., Italy). The dressings were changed every 48 hours under general anaesthesia, at which time the wounds were washed with warm saline to remove any debris and the remaining gel within the wound, measured, photographed and fresh gel was applied and the wounds dressed as described above. In one experiment, a disinfectant compress of ESDC (Symbollon, Corp.) was applied during the change of dressing for about ten minutes, preceded and followed by warm saline rinse. At days 4, 6, 8, 10 and 12, the animals were sacrificed and the wounds with the surrounding tissues were extirpated and prepared for histological examination. The thickness of the newly formed epithelial layer and of the underlying granulation tissue were measured using light microscopy (Zeiss) at 100×magnification. The wound macrophotographs were analyzed using ImageMeasure (Phoenix Corp., Seattle, Wash.) computerized morphometric program and the experimental results were plotted as graphs showing the fractional change in area (i.e. closure rate) of the wounds treated with gel-media+hormones versus the various controls. The wound closure rate was tabulated and peak closure day (% closure) was determined. Peak closure rate has been used as a measure of wound healing potency. Peak closure rate is the maximum slope of the [formula] vs. time curve. Peak closure rate indicates the time after the start of the treatment at which tissue healing or growth rate reaches a maximum value (maximum rate); i.e., when the treatment is optimal.

Regarding `N[C@@H](Cc1cc(I)c(Oc2cc(I)c(O)c(I)c2)c(I)c1)C(=O)O` [thyroxine, reference compound], for the setting “relative to triiodothyronine”, the “concentration level relative to triiodothyronine giving the same effect” value is given as 3-5 times.

As for “Triiodothyronine/thyroxine [reference compound]”, the “Peak Closure Day (% Closure)” value is recorded as 30%, the “wound healing activity in medium relative to the same in saline” value is “substantially enhanced wound healing activity”, the “Peak Closure Day” value was found to be 3.0 days and the “Closure % (Day) 50%” value came out at 5.0 days. Moreover, the “Peak closure rate (comparison in words)” value is recorded as “the same”, the “Peak closure rate occurred later” value is given as 33%, the “closure rate of 50% slower” value is on record as 75% and the “closure of 50% faster” value stood at 15%.

Regarding “Growth Hormone: human growth hormone at 2 ng/ml in Agarose gel, in saline or in medium”, the “Peak Closure Day (% Closure)” value came to 50%, the “Peak Closure Day” value stood at 6.0 days, the “Closure % (Day) 50%” value amounted to 6.0 days and the “Peak closure rate (comparison in words)” value is reported as “the same”. The “Peak closure rate occurred later” value is on record as 33% and the “closure rate of 50% slower” value is 75%.

In the case of Insulin, the “Peak Closure Day (% Closure)” value turned out to be 30%, the “wound healing activity in medium relative to the same in saline” value is recorded as “substantially enhanced wound healing activity”, the “Peak Closure Day” value was 3.0 days and the “Closure % (Day) 50%” value was 5.0 days. Also, the “Peak closure rate (comparison in words)” value was “the same”, the “Peak closure rate occurred later” value stood at 33%, the “closure rate of 50% slower” value came out at 75% and the “closure of 50% faster” value was determined as 15%. In addition, the “wound healing, medium plus insulin vs medium plus IGF” value (Agarose in medium, IGF at 8 ng/ml, through day 9) is on record as “substantially better”.

These data come from patent US5591709A, “Compositions and methods for treating wounds” (Life Medical Sciences, Inc., priority 1995, dated 1997).
